# Test system: PC-3-KQ and PC-3-KR cells
# Assay: RNA-sequencing and differential gene expression
# Assay type: cell-based, human
compound,measurement,setting,value
CC(=O)Oc1ccccc1C(=O)Nc1ncc([N+](=O)[O-])s1 [Nitazoxanide],SERPINA5 Change (KQ-Control vs KQ-NTZ),"RNA-Seq, PC-3-KQ cells",DOWN
same,SERPINA5 logFC (KQ-Control vs KQ-NTZ),"RNA-Seq, PC-3-KQ cells",-0.8689
same,SERPINB3 Change (KQ-Control vs KQ-NTZ),"RNA-Seq, PC-3-KQ cells",DOWN
same,SERPINB3 logFC (KQ-Control vs KQ-NTZ),"RNA-Seq, PC-3-KQ cells",-1.6793
same,SERPINB4 Change (KQ-Control vs KQ-NTZ),"RNA-Seq, PC-3-KQ cells",DOWN
same,SERPIND1 Change (KQ-Control vs KQ-NTZ),"RNA-Seq, PC-3-KQ cells",DOWN
same,SERPIND1 logFC (KQ-Control vs KQ-NTZ),"RNA-Seq, PC-3-KQ cells",-1.1652
same,SGK1 Change (KQ-Control vs KQ-NTZ),"RNA-Seq, PC-3-KQ cells",DOWN
same,SGK1 logFC (KQ-Control vs KQ-NTZ),"RNA-Seq, PC-3-KQ cells",-0.7813
same,SHISA3 Change (KQ-Control vs KQ-NTZ),"RNA-Seq, PC-3-KQ cells",DOWN
same,SHISA3 logFC (KQ-Control vs KQ-NTZ),"RNA-Seq, PC-3-KQ cells",-0.8421
same,SLC22A4 Change (KQ-Control vs KQ-NTZ),"RNA-Seq, PC-3-KQ cells",DOWN
same,SLC22A4 logFC (KQ-Control vs KQ-NTZ),"RNA-Seq, PC-3-KQ cells",-0.8073
same,SLC26A9 Change (KQ-Control vs KQ-NTZ),"RNA-Seq, PC-3-KQ cells",DOWN
same,SLC26A9 logFC (KQ-Control vs KQ-NTZ),"RNA-Seq, PC-3-KQ cells",-0.6605
same,SLC45A2 Change (KQ-Control vs KQ-NTZ),"RNA-Seq, PC-3-KQ cells",DOWN
same,SLC45A2 logFC (KQ-Control vs KQ-NTZ),"RNA-Seq, PC-3-KQ cells",-0.7358
same,SLITRK5 Change (KQ-Control vs KQ-NTZ),"RNA-Seq, PC-3-KQ cells",DOWN
same,SLITRK5 logFC (KQ-Control vs KQ-NTZ),"RNA-Seq, PC-3-KQ cells",-0.708
same,SVEP1 Change (KQ-Control vs KQ-NTZ),"RNA-Seq, PC-3-KQ cells",DOWN
same,SVEP1 logFC (KQ-Control vs KQ-NTZ),"RNA-Seq, PC-3-KQ cells",-1.4829
same,TCN1 Change (KQ-Control vs KQ-NTZ),"RNA-Seq, PC-3-KQ cells",DOWN
same,TCN1 logFC (KQ-Control vs KQ-NTZ),"RNA-Seq, PC-3-KQ cells",-0.7528
same,TENM4 Change (KQ-Control vs KQ-NTZ),"RNA-Seq, PC-3-KQ cells",DOWN
same,TENM4 logFC (KQ-Control vs KQ-NTZ),"RNA-Seq, PC-3-KQ cells",-0.7441
same,TIMM8A Change (KQ-Control vs KQ-NTZ),"RNA-Seq, PC-3-KQ cells",DOWN
same,TNF Change (KQ-Control vs KQ-NTZ),"RNA-Seq, PC-3-KQ cells",DOWN
same,TNF logFC (KQ-Control vs KQ-NTZ),"RNA-Seq, PC-3-KQ cells",-0.6786
same,TNFRSF6B Change (KQ-Control vs KQ-NTZ),"RNA-Seq, PC-3-KQ cells",DOWN
same,TNFRSF6B logFC (KQ-Control vs KQ-NTZ),"RNA-Seq, PC-3-KQ cells",-0.5861
same,TNFRSF11B Change (KQ-Control vs KQ-NTZ),"RNA-Seq, PC-3-KQ cells",DOWN
same,TNFRSF11B logFC (KQ-Control vs KQ-NTZ),"RNA-Seq, PC-3-KQ cells",-2.1243
same,TSPAN18 Change (KQ-Control vs KQ-NTZ),"RNA-Seq, PC-3-KQ cells",DOWN
same,TSPAN18 logFC (KQ-Control vs KQ-NTZ),"RNA-Seq, PC-3-KQ cells",-0.7268
same,TTC30A Change (KQ-Control vs KQ-NTZ),"RNA-Seq, PC-3-KQ cells",DOWN
same,TTC30A logFC (KQ-Control vs KQ-NTZ),"RNA-Seq, PC-3-KQ cells",-0.7519
same,TTC30B Change (KQ-Control vs KQ-NTZ),"RNA-Seq, PC-3-KQ cells",DOWN
same,TTC30B logFC (KQ-Control vs KQ-NTZ),"RNA-Seq, PC-3-KQ cells",-0.6538
same,XKRX Change (KQ-Control vs KQ-NTZ),"RNA-Seq, PC-3-KQ cells",DOWN
same,XKRX logFC (KQ-Control vs KQ-NTZ),"RNA-Seq, PC-3-KQ cells",-0.6274
same,ZFPM2 Change (KQ-Control vs KQ-NTZ),"RNA-Seq, PC-3-KQ cells",DOWN
same,ZFPM2 logFC (KQ-Control vs KQ-NTZ),"RNA-Seq, PC-3-KQ cells",-1.4661
same,ZNF28 Change (KQ-Control vs KQ-NTZ),"RNA-Seq, PC-3-KQ cells",DOWN
same,ZNF28 logFC (KQ-Control vs KQ-NTZ),"RNA-Seq, PC-3-KQ cells",-0.6433
same,ZNF302 Change (KQ-Control vs KQ-NTZ),"RNA-Seq, PC-3-KQ cells",DOWN
same,ZNF302 logFC (KQ-Control vs KQ-NTZ),"RNA-Seq, PC-3-KQ cells",-1.2333
same,"logFC, gene ABCB11","RNA-Seq, PC-3-KQ cells, KQ-Control vs KQ-NTZ, gene ABCB11",-0.7396
same,"logFC, gene C5orf63","RNA-Seq, PC-3-KQ cells, KQ-Control vs KQ-NTZ, gene C5orf63",-1.615
same,"logFC, gene C11orf65","RNA-Seq, PC-3-KQ cells, KQ-Control vs KQ-NTZ, gene C11orf65",-0.9307
same,"logFC, gene CELF3","RNA-Seq, PC-3-KQ cells, KQ-Control vs KQ-NTZ, gene CELF3",-0.8233
same,"logFC, gene LOC107985532","RNA-Seq, PC-3-KQ cells, KQ-Control vs KQ-NTZ, gene LOC107985532",-0.9452
same,"logFC, gene MROH8","RNA-Seq, PC-3-KQ cells, KQ-Control vs KQ-NTZ, gene MROH8",-0.9801
same,"logFC, gene RLN1","RNA-Seq, PC-3-KQ cells, KQ-Control vs KQ-NTZ, gene RLN1",-1.0231
same,"logFC, gene RP1L1","RNA-Seq, PC-3-KQ cells, KQ-Control vs KQ-NTZ, gene RP1L1",-0.9422
same,"logFC, gene SAXO2","RNA-Seq, PC-3-KQ cells, KQ-Control vs KQ-NTZ, gene SAXO2",-0.8856
same,"logFC, gene TNFAIP8L2-SCNM1","RNA-Seq, PC-3-KQ cells, KQ-Control vs KQ-NTZ, gene TNFAIP8L2-SCNM1",-0.9389
same,"logFC, gene ZNF154","RNA-Seq, PC-3-KQ cells, KQ-Control vs KQ-NTZ, gene ZNF154",-0.8416
same,"logFC, gene ZNF596","RNA-Seq, PC-3-KQ cells, KQ-Control vs KQ-NTZ, gene ZNF596",-0.9026
same,"Change (KQ-Control vs KQ-NTZ), gene ABCB11","RNA-Seq, PC-3-KQ cells, gene ABCB11",DOWN
same,"Change (KQ-Control vs KQ-NTZ), gene C5orf63","RNA-Seq, PC-3-KQ cells, gene C5orf63",DOWN
same,"Change (KQ-Control vs KQ-NTZ), gene C11orf65","RNA-Seq, PC-3-KQ cells, gene C11orf65",DOWN
same,"Change (KQ-Control vs KQ-NTZ), gene CELF3","RNA-Seq, PC-3-KQ cells, gene CELF3",DOWN
same,"Change (KQ-Control vs KQ-NTZ), gene LOC107985532","RNA-Seq, PC-3-KQ cells, gene LOC107985532",DOWN
same,"Change (KQ-Control vs KQ-NTZ), gene MROH8","RNA-Seq, PC-3-KQ cells, gene MROH8",DOWN
same,"Change (KQ-Control vs KQ-NTZ), gene RLN1","RNA-Seq, PC-3-KQ cells, gene RLN1",DOWN
same,"Change (KQ-Control vs KQ-NTZ), gene RP1L1","RNA-Seq, PC-3-KQ cells, gene RP1L1",DOWN
same,"Change (KQ-Control vs KQ-NTZ), gene SAXO2","RNA-Seq, PC-3-KQ cells, gene SAXO2",DOWN
same,"Change (KQ-Control vs KQ-NTZ), gene TNFAIP8L2-SCNM1","RNA-Seq, PC-3-KQ cells, gene TNFAIP8L2-SCNM1",DOWN
same,"Change (KQ-Control vs KQ-NTZ), gene ZNF154","RNA-Seq, PC-3-KQ cells, gene ZNF154",DOWN
same,"Change (KQ-Control vs KQ-NTZ), gene ZNF596","RNA-Seq, PC-3-KQ cells, gene ZNF596",DOWN
same,change of NTZ treatment,gene AADACL3,down
same,change of NTZ treatment,gene ABAT,up
same,change of NTZ treatment,gene ADIRF,up
same,logFC,"gene ADIRF, KQ-Control vs KQ-NTZ",0.6207
same,logFC,"gene AKR1B1, KQ-Control vs KQ-NTZ",1.237
same,change of NTZ treatment,gene AKR1C1,up
same,logFC,"gene AKR1C1, KQ-Control vs KQ-NTZ",1.37
same,change of NTZ treatment,gene AKR1C3,up
same,change of NTZ treatment,gene ANG,up
same,logFC,"gene ANG, KQ-Control vs KQ-NTZ",1.354
